Assay type in all cases: biochemical
One test has as its target T1, Aurora B (Homo sapiens, UniProt Q96GD4).
T1 construct: purchased Invitrogen PV3970
Put plainly: Aurora B Inhibition Assay (Z-Lyte). Particulars: 128 μM ATP, 28 nM Aurora B; read-out: Aurora B IC50 Ranges. The protocol:
Aurora B inhibition was determined using the Z-Lyte assay kit from Invitrogen. The assay was performed using the recommended manufacturer's instructions with 128 μM ATP and 28 nM Aurora B (Invitrogen cat #PV3970). The % inhibition values were determined according to the manufacturer's directions and IC50 values were obtained using a non-linear 4 point logistic curve fit (XLfit4, IDBS)

A further test concerns the target T2, human PLK4 (Homo sapiens, UniProt O00444).
T2 construct: amino terminal GST fusion of residues 1-391 of human PLK4; made in house; host or cells: E. coli
T2 sequence (O00444 1-391): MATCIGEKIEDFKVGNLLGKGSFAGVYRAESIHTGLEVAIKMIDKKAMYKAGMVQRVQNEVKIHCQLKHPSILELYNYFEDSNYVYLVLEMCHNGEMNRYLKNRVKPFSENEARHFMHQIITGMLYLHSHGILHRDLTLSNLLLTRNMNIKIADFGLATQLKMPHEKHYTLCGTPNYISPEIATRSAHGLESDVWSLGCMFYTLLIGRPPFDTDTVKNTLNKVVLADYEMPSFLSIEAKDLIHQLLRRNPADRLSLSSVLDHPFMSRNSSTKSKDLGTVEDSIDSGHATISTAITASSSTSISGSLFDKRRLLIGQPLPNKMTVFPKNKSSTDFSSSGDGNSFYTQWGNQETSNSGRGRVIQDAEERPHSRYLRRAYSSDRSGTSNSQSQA
In words: PLK4 Inhibition Assay (indirect ELISA). The following applies: 15 μM ATP, 4 nM GST-PLK4; read-out: PLK4 IC50 Ranges. The protocol:
The protein was purified from clarified cell extracts after induction at 15° C. overnight using glutathione sepharose, gel permeation chromatography, and ion exchange (Resource Q). The resulting protein was dephosphorylated with lambda phosphatase (NEB cat #P0753), and resolved from the phosphatase using gluthione sepharose. The dephosphorylated GST-PLK4 was stored in aliquots at −80° C. until use. PLK4 activity was measured using an indirect ELISA detection system. […] Compounds were pre-incubated in the presence of enzyme for 15 minutes prior to addition of ATP and the activity remaining quantified using the above described activity assay. […] The IC50 value was determined using a non-linear 4 point logistic curve fit (XLfit4, IDBS) with the formula; (A+(B/(1+((x/C)^D)))), where A=background value, B=range, C=inflection point, D=curve fit parameter.
In general terms: ELISA stands for enzyme-linked immunosorbent assay.

The target in the next test is T3, Aurora A (Homo sapiens, UniProt O14965).
T3 construct: purchased Invitrogen PV3612
T3 sequence (O14965 1-403): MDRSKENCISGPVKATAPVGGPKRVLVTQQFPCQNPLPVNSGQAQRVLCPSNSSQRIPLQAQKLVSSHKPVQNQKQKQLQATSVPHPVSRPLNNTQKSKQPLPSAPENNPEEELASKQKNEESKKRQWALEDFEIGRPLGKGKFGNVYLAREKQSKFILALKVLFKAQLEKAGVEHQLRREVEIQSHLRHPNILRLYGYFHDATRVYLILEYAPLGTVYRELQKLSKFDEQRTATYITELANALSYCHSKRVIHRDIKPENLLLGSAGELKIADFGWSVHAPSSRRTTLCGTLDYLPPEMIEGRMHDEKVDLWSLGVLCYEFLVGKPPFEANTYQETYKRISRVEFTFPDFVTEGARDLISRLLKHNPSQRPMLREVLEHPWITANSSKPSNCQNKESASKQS
In words: Aurora A Inhibition Assay (Z-Lyte). Particulars: 20 μM ATP, 12 nM Aurora A; read-out: Aurora A IC50 Ranges. The protocol:
Aurora A inhibition was determined using the Z-Lyte assay kit from Invitrogen. The assay was performed using the recommended manufacturer's instructions with 20 μM ATP and 12 nM Aurora A (Invitrogen cat #PV3612). The % inhibition values were determined according to the manufacturer's directions and IC50 values were obtained using a non-linear 4 point logistic curve fit (XLfit4, IDBS)

A further test addresses T4, PLK1 (Homo sapiens, UniProt P53350).
T4 construct: purchased Invitrogen PV3501
In words: PLK1 Inhibition Assay (Z-Lyte). Particulars: 25 μM ATP, 8 nM PLK1; read-out: PLK1 IC50 Ranges. On the procedure:
PLK1 inhibition was determined using the Z-Lyte assay kit from Invitrogen (cat #PV3802). […] The % inhibition values were determined according to the manufacturer's directions and IC50 values were obtained using a non-linear 4 point logistic curve fit (XLfit4, IDBS)

Our source for the IC50 values is patent US8765748B2, “Indazolyl, benzimidazolyl, benzotriazolyl substituted indolinone derivatives as kinase inhibitors useful in the treatment of cancer” (University Health Network, priority 2007, dated 2014).

One may read the IC50 as the concentration that gives 50% inhibition.

T1 sequence (Q96GD4 whole entry): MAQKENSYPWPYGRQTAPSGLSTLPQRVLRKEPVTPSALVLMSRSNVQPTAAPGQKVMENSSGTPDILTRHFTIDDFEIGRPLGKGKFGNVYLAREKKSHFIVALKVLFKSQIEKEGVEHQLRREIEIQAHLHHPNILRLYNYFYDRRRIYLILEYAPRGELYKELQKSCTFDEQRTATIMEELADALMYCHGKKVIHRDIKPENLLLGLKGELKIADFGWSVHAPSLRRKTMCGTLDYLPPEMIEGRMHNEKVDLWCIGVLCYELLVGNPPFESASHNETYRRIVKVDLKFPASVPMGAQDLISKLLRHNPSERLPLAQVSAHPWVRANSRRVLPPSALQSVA
T4 sequence (P53350 whole entry): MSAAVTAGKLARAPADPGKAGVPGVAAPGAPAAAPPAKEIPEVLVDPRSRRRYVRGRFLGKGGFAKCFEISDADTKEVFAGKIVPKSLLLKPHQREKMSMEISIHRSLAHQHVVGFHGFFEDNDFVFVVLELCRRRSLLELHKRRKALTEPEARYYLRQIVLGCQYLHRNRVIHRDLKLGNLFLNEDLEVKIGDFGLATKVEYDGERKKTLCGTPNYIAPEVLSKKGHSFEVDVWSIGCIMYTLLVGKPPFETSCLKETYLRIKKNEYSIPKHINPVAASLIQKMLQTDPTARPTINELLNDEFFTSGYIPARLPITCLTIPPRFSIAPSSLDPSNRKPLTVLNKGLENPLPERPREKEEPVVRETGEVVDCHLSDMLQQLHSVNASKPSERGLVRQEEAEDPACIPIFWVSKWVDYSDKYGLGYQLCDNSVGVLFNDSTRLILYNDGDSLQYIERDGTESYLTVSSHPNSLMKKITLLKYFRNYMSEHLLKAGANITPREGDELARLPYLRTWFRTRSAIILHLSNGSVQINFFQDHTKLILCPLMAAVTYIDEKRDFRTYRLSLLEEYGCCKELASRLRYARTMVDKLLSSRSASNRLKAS

Regarding `CN(C)CCN(C)S(=O)(=O)c1ccc2c(c1)C(=Cc1ccc3c(/C=C/c4ccncc4)n[nH]c3c1)C(=O)N2` (mixture of isomers) [Example A129, (E and Z)—N-(2-(dimethylamino)ethyl)-N-methyl-2-oxo-3-((3-((E)-2-(pyridin-4-yl)vinyl)-1H-indazol-6-yl)methylene)indoline-5-sulfonamide], the IC50 at Aurora B and at human PLK4 was below 5 µM throughout.

Take `CN(C)CCCNc1ccc2c(c1)C(=Cc1ccc3c(/C=C/c4ccncc4)n[nH]c3c1)C(=O)N2` (mixture of isomers) [Example A130, (E and Z)-5-(3-(dimethylamino)propylamino)-3-((3-((E)-2-(pyridin-4-yl)-vinyl)-1H-indazol-6-yl)methylene)indolin-2-one]: the IC50 at Aurora B and at human PLK4 was below 5 µM in each case.

Consider `COc1ccc2c(c1)C(=Cc1ccc3c(/C=C/c4ccc(CN(C)C)cc4)n[nH]c3c1)C(=O)N2` (stereo in doubt) [Example A136b, (Z)-3-((3-(4-((dimethylamino)methyl)styryl)-1H-indazol-6-yl)-methylene)-5-methoxyindolin-2-one 2,2,2-trifluoroacetate], for which the IC50 on Aurora B and on Aurora A was below 5 µM each time.

As for `CNC(=O)c1ccc2c(c1)/C(=C\c1ccc3cn[nH]c3c1)C(=O)N2` [Example A8, (E)-3-((1H-indazol-6-yl)methylene)-N-methyl-2-oxoindoline-5-carboxamide], the IC50 at human PLK4 and at PLK1 was 5 to 50 µM in each case.

Turning to `CC(C)(C)OC(=O)Nc1ccc2c(c1)/C(=C\c1ccc3cn[nH]c3c1)C(=O)N2` [Example A12, (E)-tert-butyl 3-((1H-indazol-6-yl)methylene)-2-oxoindolin-5-ylcarbamate], the IC50 on human PLK4 was below 5 µM; at PLK1, 5 to 50 µM.

As for `O=C1Nc2ccc(OC(F)(F)F)cc2/C1=C\c1ccc2nn[nH]c2c1` [Example A14, (E)-3-((1H-benzo[d][1,2,3]triazol-5-yl)methylene)-5-(trifluoromethoxy)indolin-2-one], the half-inhibitory concentration (IC50) was below 5 µM at human PLK4 and above 50 µM at PLK1.

For the compound `Nc1ccc2c(c1)/C(=C\c1ccc3cn[nH]c3c1)C(=O)N2` [Example A15, (E)-3-((1H-indazol-6-yl)methylene)-2-oxoindolin-5-aminium 2,2,2-trifluoroacetate], the IC50 is below 5 µM on human PLK4 and 5 to 50 µM at PLK1.

Regarding `CC(=O)Nc1ccc2c(c1)NC(=O)/C2=C/c1ccc2nn[nH]c2c1` [Example A17, (E)-N-(3-((1H-benzo[d][1,2,3]triazol-5-yl)methylene)-2-oxoindolin-6-yl)acetamide], the IC50 on human PLK4 and at PLK1 was 5 to 50 µM in each case.

For `CC(=O)Nc1ccc2c(c1)NC(=O)/C2=C/c1ccc2[nH]ncc2c1` [Example A18], the IC50 was below 5 µM at human PLK4 and 5 to 50 µM at PLK1.

For `CN(C)S(=O)(=O)Nc1ccc2c(c1)/C(=C\c1ccc3cn[nH]c3c1)C(=O)N2` [Example A20, N′-[(3E)-3-(1H-indazol-6-ylmethylidene)-2-oxo-2,3-dihydro-1H-indol-5-yl]-N,N-dimethylsulfamide], the IC50 at human PLK4 and at PLK1 was below 5 µM in each case.

Consider `CN(C)S(=O)(=O)Nc1ccc2c(c1)/C(=C\c1ccc3nn[nH]c3c1)C(=O)N2` [Example A21, N′-[(3E)-3-(1H-benzotriazol-5-ylmethylidene)-2-oxo-2,3-dihydro-1H-indol-5-yl]-N,N-dimethylsulfamide], for which the values for the IC50 on human PLK4 and on PLK1 were below 5 µM and 5 to 50 µM, respectively.

On to `CC(=O)Nc1ccc2c(c1)/C(=C\c1ccc3nn[nH]c3c1)C(=O)N2` [Example A23, (E)-N-(3-((1H-benzo[d][1,2,3]triazol-5-yl)methylene)-2-oxoindolin-5-yl)acetamide], for which the IC50 at human PLK4 is below 5 µM; on PLK1, 5 to 50 µM.

`CS(=O)(=O)Nc1ccc2c(c1)/C(=C\c1ccc3nn[nH]c3c1)C(=O)N2` [Example A24, (E)-N-(3-((1H-benzo[d][1,2,3]triazol-5-yl)methylene)-2-oxoindolin-5-yl)methanesulfonamide]: the IC50 is below 5 µM at human PLK4 and 5 to 50 µM at PLK1.

`CS(=O)(=O)Nc1ccc2c(c1)/C(=C\c1ccc3cn[nH]c3c1)C(=O)N2` [Example A25, (E)-N-(3-((1H-indazol-6-yl)methylene)-2-oxoindolin-5-yl)methanesulfonamide]: the IC50 on human PLK4 and at PLK1 was below 5 µM each time.

Turning to `CC(C)NC(=O)Nc1ccc2c(c1)/C(=C\c1ccc3nn[nH]c3c1)C(=O)N2` [Example A27, (E)-1-(3-((1H-benzo[d][1,2,3]triazol-5-yl)methylene)-2-oxoindolin-5-yl)-3-isopropylurea], the IC50 at human PLK4 and at PLK1 was 5 to 50 µM each time.

With `O=C1Nc2cc(-c3cccnc3)ccc2/C1=C\c1ccc2[nH]nnc2c1` [Example A29, (E)-3-((1H-benzo[d][1,2,3]triazol-5-yl)methylene)-6-(pyridin-3-yl)indolin-2-one], the IC50 on human PLK4 was below 5 µM; on PLK1 it was above 50 µM.

In the case of `O=C1Nc2cc(-c3cccnc3)ccc2/C1=C\c1ccc2[nH]ncc2c1` [Example A30, (E)-3-((1H-indazol-5-yl)methylene)-6-(pyridin-3-yl)indolin-2-one], the figures for the IC50 at human PLK4 and on PLK1 were 5 to 50 µM and above 50 µM, respectively.

With `CN1C(=O)/C(=C/c2ccc3nn[nH]c3c2)c2ccccc21` [Example A33, (E)-3-((1H-benzo[d][1.2.3]triazol-5-yl)methylene)-1-methylindolin-2-one], the IC50 was 5 to 50 µM at human PLK4 and above 50 µM at PLK1.

For the compound `CN1C(=O)/C(=C/c2ccc3cn[nH]c3c2)c2ccccc21` [Example A34, (E)-3-((1H-indazol-6-yl)methylene)-1-methylindolin-2-one], the IC50 at human PLK4 and on PLK1 was 5 to 50 µM in each case.

In the case of `C/C(=C1\C(=O)Nc2ccccc21)c1ccc2cn[nH]c2c1` [Example A51, (E)-3-(1-(1H-indazol-6-yl)ethylidene)indolin-2-one], the values for the IC50 on Aurora B and at human PLK4 were 5 to 50 µM and below 5 µM, respectively.

`COc1ccc2c(c1)/C(=C\c1ccc3c(/C=C/c4cccc[n+]4[O-])n[nH]c3c1)C(=O)N2` [Example A88, 2-((E)-2-(6-((E)-(5-methoxy-2-oxoindolin-3-ylidene)methyl)-1H-indazol-3-yl)vinyl)pyridine 1-oxide]: the 50% inhibitory concentration (IC50) at Aurora B and on human PLK4 was below 5 µM in each case.

On to `CC(C)(C)OC(=O)Nc1ccc2c(c1)/C(=C\c1ccc3c(/C=C/c4ccncc4)n[nH]c3c1)C(=O)N2` [Example A121, tert-butyl(E)-2-oxo-3-((3-((E)-2-(pyridin-4-yl)vinyl)-1H-indazol-6-yl)methylene)indolin-5-ylcarbamate], for which the IC50 at Aurora B and at human PLK4 was below 5 µM throughout.

With `Nc1ccc2c(c1)/C(=C\c1ccc3c(/C=C/c4ccncc4)n[nH]c3c1)C(=O)N2` [Example A122, (E)-5-amino-3-((3-((E)-2-(pyridin-4-yl)vinyl)-1H-indazol-6-yl)-methylene)indolin-2-one bis(2,2,2-trifluoroacetate)], the IC50 at Aurora B and on human PLK4 was below 5 µM throughout.
